Results on eight substances are retold here after patent US8022040B2, “Hydroxyapatite-binding peptides for bone growth and inhibition” (The Regents of the University of California, priority 2004, dated 2011).

The conditions of test [1]: for HA nucleation templated by peptide deposited from cosolvent: 1.5 mg/ml in acetonitrile and water (1:1/v:v), dried on grid, soaked in mineral precursor solutions; for HA nucleation templated by peptide solution in 100% water: compared to peptides 1 and 2. The method, then:
(CaCl2 (10 mM)+Na2HPO4 (5 mM)→Ca10(OH)2(PO4)6). The inset photographs show the X-ray diffraction patterns of the crystals at each timepoint.
In order to investigate the nucleation ability of these binding peptides, the major 12-mer linear binding peptide was synthesized by solid phase synthetic method and subjected to HA-mineralization on holey carbon film-coated TEM grids according to J. D. Hartgerink, E. Beniash, S. I. Stupp, Science, 294, 1684 (2001), which is hereby incorporated by reference.
In order to study kinetics of HA nucleation by this peptide suspension, time dependence nucleation was investigated by preparing parallel TEM samples where HA was nucleated for 30 min (FIG. 20, Panel C), 1 hr (FIG. 20, Panel D), and 2 hrs (FIG. 20, Panel E) by same concentration peptide suspension.

Test [2] is described as follows: Flow cytometric measurement of fluorescence intensity of binding viruses on HA surfaces. The method, then: (§1) Single crystalline and polycrystalline HA were freshly etched to remove carbonated contaminates and incubated with 1×10^10 pfu of phage of W4a-4-14 (Single 14), W4a-4-15 (single 15), HA-4-3 (poly 3), wild type (wild) phages suspension for these assays.
(§2) As described in Example 1, 4 mg of single crystalline HA was freshly etched to remove carbonated contaminates and incubated with 1×10^10 pfu of phage of constrained W4a-4-14 (Single 14), W4a-4-15 (single 15), HA-4-3 (poly 3), wild type (wild) phages suspension. After washing off with TBST (0.5%) ten times, the bound phage was eluted using glycine-HCl […] and titered to count number of bound phage.
After 30 minutes incubation of 4 mg/ml of HA crystals with ˜10^10 pfu/ml of each phage, CLP7, CLP12, or the wild type phages, the HA crystals were washed ten times with Tris-buffered saline solution (pH 7.5) contained 0.5% Tween 20. The phage bound to HA surfaces was labeled by R-phycoerythrin-conjugated monoclonal pVIII antibody (Amersham Pharmacia Biotech, UK), and the fluorescence images were acquired (Nikon fluorescence microscope, Japan) and the fluorescence intensity was quantified by FACS Calibur flow cytometer (BD Biosciences, Calif.).
(In general: A flow cytometer gives signals particle by particle.)

The nature of test [3]: Phage titering assay counting phage eluted from HA. The test is classed as binding. The following applies: FIG. 12 Panel B; comparing to the wild type viruses / the other three peptides; TBST (0.5%) wash, glycine-HCl elution. The method, then: as §1, §2
Where [4] appears, read: 1.5 mg/ml peptide, two hours mineralization, 5 mM Na2HPO4 + 10 mM CaCl2.

Where two headings read alike, the source gives them in different places. Positions of bridges follow the written chain, without caps; N, C: chain ends. No end group written: not given here.

On to APYHPTIPASVH-GGGK-biotin [peptide 5], for which, in test [1], the “HA nucleation templated by peptide deposited from cosolvent” value (from here on “HA nucleation templated … from cosolvent”) is “nucleation phenomena similar to those templated by HA binding peptides” and the “HA nucleation templated by peptide solution in 100% water” value (shortened to “HA nucleation templated … in 100% water”) is “relatively bigger amorphous calcium phosphate aggregation”.
In the case of “Cys Asn Tyr Pro Thr Leu Lys Ser Cys (CNYPTLKSC; disulfide 1-9 (inferred); also: displayed on M13 phage) [single 14]”, the “binding to HA surfaces, rank among viruses tested” value in test [2] (phage-displayed peptides single 14, single 15, poly 3 and wild type) is reported as “bind best to HA surfaces among all viruses tested”. Further, the “strength of HA binding relative to comparators” value in test [3] was “almost three times stronger”.
For “NIYHPTPPQSVH-GGGK-biotin [control peptide 1]”, in test [1] (setting [4]), the “HA deposition templated by peptide (TEM/SAED)” value is reported as “amorphous calcium phosphate deposition without any clear SAED patterns”.
Regarding “NPDHPDIPQDVH-GGGK-biotin [Control peptide 2]”, the “HA deposition templated by peptide (TEM/SAED)” value in test [1] (setting [4]) is “amorphous deposition of calcium phosphate without any clear diffraction patterns”.
For the substance NPYAPTIPQSVA-GGGK-biotin [peptide 4], in test [1], the “HA nucleation templated … from cosolvent” value is “nucleation phenomena similar to those templated by HA binding peptides” and the “HA nucleation templated … in 100% water” value was “relatively bigger amorphous calcium phosphate aggregation”.
As for NPYHPTIPQSVH [Single 15], the “improved binding affinity (fluorescence intensity of binding viruses on HA surfaces)” value in test [2] (flow cytometry, FIG. 12 Panel A, phage-displayed peptide compared to wild type phage, 1×10^10 pfu) is listed as “around 50%”.
Regarding NPYHPTIPQSVH-GGGK-biotin [peptide 3], in test [1], the “HA nucleation templated … from cosolvent” value is listed as “nucleation phenomena similar to those templated by HA binding peptides” and the “HA nucleation templated … in 100% water” value is “reduced HA-nucleation ability with different morphology of HA crystals”.
Regarding “NPYHPTIPQSVH-GGGK-biotin [single 15-biotin]”, the “HA deposition templated by peptide (TEM/SAED)” value was “well crystallized HA deposition” in test [1] (setting [4]); “well-crystallized HA crystals” in test [1] (15 mg/ml peptide, two hours, same amount of CaCl2 and Na2HPO4). The “HA nucleation, time dependence (TEM/SAED)” value is recorded as “amorphous deposition of calcium phosphate” in test [1] (30 min) and “fully developed HA crystals were nucleated” in test [1] (after 2 hours).
